Measurements published in patent US9695155B2, “Herbicidal substituted pyrimidinyloxy benzene compounds” (E. I. DU PONT DE NEMOURS AND COMPANY, priority 2013, dated 2017).

Key:
Test in all cases: Test E preemergence
[1] = test system: Brazilian crabgrass; type: in vivo, Digitaria horizontalis; conditions: for Crabgrass, Brazil plant response rating: scale 0 to 100 (0 no effect, 100 complete control)
Source text: (§1) Seeds of plant species selected from corn (Zea mays), soybean (Glycine max), velvetleaf (Abutilon theophrasti), lambsquarters (Chenopodium album), wild poinsettia (Euphorbia heterophylla), palmer pigweed (Amaranthus palmeri), waterhemp (common waterhemp, Amaranthus rudis), surinam grass (Brachiaria decumbens), large (Lg) crabgrass (Digitaria sanguinalis), Brazilian crabgrass (Digitaria horizontalis), fall panicum (Panicum dichotomiflorum), giant foxtail (Setaria faberii), green foxtail (Setaria viridis), goosegrass (Eleusine indica), johnsongrass (Sorghum halepense), ragweed (common ragweed, Ambrosia elatior), barnyardgrass (Echinochloa crus-galli), sandbur (southern sandbur, Cenchrus echinatus), arrowleaf sida (Sida rhombifolia), Italian ryegrass (Lolium multiflorum), dayflower (Virginia (VA) dayflower, Commelina virginica), field bindweed (Convolvulus arvensis), morningglory (Ipomoea coccinea), nightshade (eastern black nightshade, Solanum ptycanthum), kochia (Kochia scoparia), yellow nutsedge (Cyperus esculentus), cocklebur (common cocklebur, Xanthium strumarium), smartweed (ladysthumb smartweed, and hairy beggarticks (Bidens pilosa), were planted into a silt loam soil and treated preemergence with test chemicals formulated in a non-phytotoxic solvent mixture which included a surfactant.
(§2) At the same time, plants from these crop and weed species and also horseweed (Canada horseweed, Conyza canadensis), waterhemp_RES1, (ALS & Triazine resistant common waterhemp, Amaranthus rudis), and waterhemp_RES2, (ALS & HPPD resistant common waterhemp, Amaranthus rudis) were planted in pots containing Redi-Earth® planting medium (Scotts Company, 14111 Scottslawn Road, Marysville, Ohio 43041) comprising spaghnum peat moss, vermiculite, wetting agent and starter nutrients were treated with postemergence applications of test chemicals formulated in the same manner. Plants ranged in height from 2 to 18 cm for postemergence treatments (1- to 4-leaf stage). Treated plants and controls were maintained in a greenhouse for 14 to 21 days, after which time all species were compared to controls and visually evaluated. Plant response ratings, summarized in Table E, are based on a scale of 0 to 100 where 0 is no effect and 100 is complete control. A dash (-) response means no test result.

[2] = test system: waterhemp; type: in vivo, Amaranthus rudis; conditions: for Waterhemp plant response rating: scale 0 to 100 (0 no effect, 100 complete control)
Source text: as §1, §2

[3] = test system: lambsquarters; type: in vivo, Chenopodium album; conditions: for Lambsquarters plant response rating: scale 0 to 100 (0 no effect, 100 complete control)
Source text: as §1, §2

[4] = test system: corn; type: in vivo, Zea mays; conditions: for Corn plant response rating: scale 0 to 100 (0 no effect, 100 complete control)
Source text: as §1, §2

[5] = test system: goosegrass; type: in vivo, Eleusine indica; conditions: for Goosegrass plant response rating: scale 0 to 100 (0 no effect, 100 complete control)
Source text: as §1, §2

[6] = test system: field bindweed; type: in vivo, Convolvulus arvensis; conditions: for Field Bindweed plant response rating: scale 0 to 100 (0 no effect, 100 complete control)
Source text: as §1, §2

[7] = test system: barnyardgrass; type: in vivo, Echinochloa crus-galli; conditions: for Barnyardgrass plant response rating: scale 0 to 100 (0 no effect, 100 complete control)
Source text: as §1, §2

[8] = test system: wild poinsettia; type: in vivo, Euphorbia heterophylla; conditions: for Poinsettia, Wild plant response rating: scale 0 to 100 (0 no effect, 100 complete control)
Source text: as §1, §2

[9] = 8 g ai/ha, scale 0 to 100, 0 is no effect, 100 is complete control
[10] = 125 g ai/ha, scale 0 to 100, 0 no effect, 100 complete control
[11] = Preemergence, 62 g ai/ha, scale 0 to 100, 0 no effect, 100 complete control
[12] = preemergence, 125 g ai/ha, scale 0 to 100, 0 no effect, 100 complete control
[13] = 250 g ai/ha, scale 0 to 100, 0 no effect, 100 complete control

| SMILES | Crabgrass, Brazil plant response rating ([1]; 62 g ai/ha) | Plant response rating, Crabgrass, Brazil [1, 10] | Waterhemp plant response rating ([2]; 16 g ai/ha) | Waterhemp plant response rating ([2]; 31 g ai/ha) | Waterhemp plant response rating ([2]; 62 g ai/ha) | Plant response rating, Waterhemp [2, 10] | Lambsquarters plant response rating ([3]; 16 g ai/ha) | Lambsquarters plant response rating ([3]; 31 g ai/ha) | Lambsquarters plant response rating ([3]; 62 g ai/ha) | Plant response rating, Lambsquarters [3, 10] | Corn plant response rating ([4]; 16 g ai/ha) | Corn plant response rating ([4]; 31 g ai/ha) | Corn plant response rating ([4]; 62 g ai/ha) | Plant response rating, Corn [4, 10] | Goosegrass plant response rating ([5]; 16 g ai/ha) | Goosegrass plant response rating ([5]; 31 g ai/ha) | Goosegrass plant response rating ([5]; 62 g ai/ha) | Plant response rating, Goosegrass [5, 10] | Field Bindweed plant response rating ([6]; 16 g ai/ha) | Field Bindweed plant response rating ([6]; 31 g ai/ha) | also measured |
| --- | --- | --- | --- | --- | --- | --- | --- | --- | --- | --- | --- | --- | --- | --- | --- | --- | --- | --- | --- | --- | --- |
| Clc1cnc(Oc2ccccc2-n2cc(Br)cn2)nc1 [Compound 7, 2-[2-(4-bromo-1H-pyrazol-1-yl)phenoxy]-5-chloropyrimidine] | 100 | 100 | 100 | 100 | 100 | 100 | 0 | 75 | 98 | 100 | 0 | 0 | 0 | 0 | 0 | 35 | 40 | 75 | 0 | 0 | Plant response rating, Crabgrass, Brazil [1, 9]: 0; Crabgrass, Brazil plant response rating ([1]; 16 g ai/ha): 0; Crabgrass, Brazil plant response rating ([1]; 31 g ai/ha): 80; Plant response rating, Waterhemp [2, 9]: 95; Plant response rating, Lambsquarters [3, 9]: 0; Plant response rating, Corn [4, 9]: 0; Plant response rating, Goosegrass [5, 9]: 0; Plant response rating, Field Bindweed [6, 9]: 0; Field Bindweed plant response rating ([6]; 62 g ai/ha): 0; Plant response rating, Field Bindweed [6, 10]: 0; Plant response rating, Barnyardgrass ([7]; 8 g ai/ha, preemergence, scale 0 to 100, 0 is no effect, 100 is complete control): 0; Barnyardgrass plant response rating ([7]; 16 g ai/ha, preemergence): 0; Barnyardgrass plant response rating ([7]; 31 g ai/ha, preemergence): 0; Plant response rating, Barnyardgrass [7, 11]: 0; Plant response rating, Barnyardgrass [7, 12]: 0; Plant response rating, Poinsettia, Wild [8, 9]: 0; Poinsettia, Wild plant response rating ([8]; 16 g ai/ha): 0; Poinsettia, Wild plant response rating ([8]; 31 g ai/ha): 0; Plant response rating, Poinsettia, Wild [8, 10]: 0 |
| FC(F)(F)c1cnn(-c2ccccc2Oc2ncc(Cl)cn2)c1 [Compound 16] | 100 | 100 | 100 | 100 | 100 | 100 | 50 | 80 | 98 | 98 | 0 | 0 | 0 | 20 | 0 | 35 | 50 | 75 | 0 | 0 | Plant response rating, Crabgrass, Brazil [1, 13]: 100; Plant response rating, Waterhemp [2, 13]: 100; Plant response rating, Lambsquarters [3, 13]: 98; Plant response rating, Corn [4, 13]: 25; Plant response rating, Goosegrass [5, 13]: 95; Field Bindweed plant response rating ([6]; 62 g ai/ha): 0; Plant response rating, Field Bindweed [6, 10]: 30; Plant response rating, Field Bindweed [6, 13]: 60; Barnyardgrass plant response rating ([7]; 16 g ai/ha, preemergence): 0; Barnyardgrass plant response rating ([7]; 31 g ai/ha, preemergence): 0; Plant response rating, Barnyardgrass [7, 11]: 0; Plant response rating, Barnyardgrass [7, 12]: 10; Plant response rating, Barnyardgrass ([7]; preemergence, 250 g ai/ha, scale 0 to 100, 0 no effect, 100 complete control): 40; Poinsettia, Wild plant response rating ([8]; 16 g ai/ha): 0; Poinsettia, Wild plant response rating ([8]; 31 g ai/ha): 0; Poinsettia, Wild plant response rating ([8]; 62 g ai/ha): 50; Plant response rating, Poinsettia, Wild [8, 10]: 50; Plant response rating, Poinsettia, Wild [8, 13]: 100 |
